Data reported in the supplement of paper PMC10307832.

How the values were obtained:
Assay in all cases: relative viability (nuclei count vs DMSO), 5 days (fraction); higher = more cells survive
[1] = test system: SK-LU-1
Procedure, shortened: (§1)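 Dosing by pin tool came one day after lung cancer cell lines were seeded in 1536-well plates, using either one drug or a fixed anchor-drug dose plus five library-drug doses (not always all listed) in √10 steps. After 5 days, nuclei were counted on 4× images. Relative viability is treated-well nuclei count divided by vehicle-well nuclei count, and values are medians of duplicate plates.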

[2] = test system: LU99A
Procedure, shortened: as §1

[3] = test system: NCI-H1975
Procedure, shortened: as §1

[4] = test system: HCC-366
Procedure, shortened: as §1

[5] = test system: NCI-H1944
Procedure, shortened: as §1

[6] = test system: NCI-H1793
Procedure, shortened: as §1

[7] = test system: COR-L 105
Procedure, shortened: as §1

[8] = test system: EPLC-272H
Procedure, shortened: as §1

[9] = test system: NCI-H1792
Procedure, shortened: as §1

[10] = test system: UMC-11
Procedure, shortened: as §1

[11] = test system: NCI-H1915
Procedure, shortened: as §1

[12] = test system: HOP-62
Procedure, shortened: as §1

[13] = test system: NCI-H358
Procedure, shortened: as §1

[14] = test system: NCI-H2085
Procedure, shortened: as §1

[15] = test system: NCI-H2170
Procedure, shortened: as §1

[16] = test system: HCC-78
Procedure, shortened: as §1

[17] = test system: A-427
Procedure, shortened: as §1

[18] = test system: NCI-H1755
Procedure, shortened: as §1

[19] = test system: LCLC-97TM1
Procedure, shortened: as §1

[20] = test system: LXF-289
Procedure, shortened: as §1

[21] = test system: NCI-H460
Procedure, shortened: as §1

[22] = test system: LC-2-ad
Procedure, shortened: as §1

`CC(C)Oc1cc(Nc2nc(N[C@@H](C)c3ccc(F)cn3)ncc2Cl)n[nH]1` [AZ23] + Cc1nc(NC(=O)N2CCC[C@H]2C(N)=O)sc1-c1ccnc(C(C)(C)C(F)(F)F)c1 [Alpelisib] (partner 2 µM) was tested, and the relative viability ([1]; first compound 0.01 µM) was 1.28, the relative viability ([1]; first compound 0.03162 µM) was 1.09 and the relative viability ([1]; first compound 0.3162 µM) was 0.973. For the same compound, the relative viability ([2]; first compound 0.01 µM) was 0.49, the relative viability ([2]; first compound 0.03162 µM) was 0.651 and the relative viability ([2]; first compound 0.3162 µM) was 0.555. The relative viability ([3]; first compound 0.01 µM) was 0.696, the relative viability ([3]; first compound 0.03162 µM) was 0.718 and the relative viability ([3]; first compound 0.3162 µM) was 0.705. It also gave a relative viability ([4]; first compound 0.01 µM) of 0.391, a relative viability ([4]; first compound 0.03162 µM) of 0.517 and a relative viability ([4]; first compound 0.3162 µM) of 0.334. It also gave a relative viability ([5]; first compound 0.01 µM) of 0.811, a relative viability ([5]; first compound 0.03162 µM) of 0.868 and a relative viability ([5]; first compound 0.3162 µM) of 0.883. It also gave a relative viability ([6]; first compound 0.01 µM) of 0.83, a relative viability ([6]; first compound 0.03162 µM) of 0.787 and a relative viability ([6]; first compound 0.3162 µM) of 0.643. For the same compound, the relative viability ([7]; first compound 0.01 µM) was 0.676, the relative viability ([7]; first compound 0.03162 µM) was 1.33 and the relative viability ([7]; first compound 0.3162 µM) was 0.813. For the same compound, the relative viability ([8]; first compound 0.01 µM) was 0.873, the relative viability ([8]; first compound 0.03162 µM) was 1.18 and the relative viability ([9]; first compound 0.01 µM) was 1.08. The relative viability ([9]; first compound 0.03162 µM) was 0.831, the relative viability ([9]; first compound 0.3162 µM) was 0.83 and the relative viability ([10]; first compound 0.01 µM) was 0.883. For the same compound, the relative viability ([10]; first compound 0.03162 µM) was 1.07, the relative viability ([10]; first compound 0.3162 µM) was 0.943 and the relative viability ([11]; first compound 0.01 µM) was 1.17. For the same compound, the relative viability ([11]; first compound 0.03162 µM) was 1.09, the relative viability ([11]; first compound 0.3162 µM) was 1.04 and the relative viability ([12]; first compound 0.01 µM) was 1.08. The relative viability ([12]; first compound 0.03162 µM) was 0.973, the relative viability ([12]; first compound 0.3162 µM) was 0.97 and the relative viability ([13]; first compound 0.01 µM) was 0.937. The relative viability ([13]; first compound 0.03162 µM) was 0.855, the relative viability ([13]; first compound 0.3162 µM) was 0.928 and the relative viability ([14]; first compound 0.01 µM) was 1. For the same compound, the relative viability ([14]; first compound 0.03162 µM) was 0.999, the relative viability ([14]; first compound 0.3162 µM) was 0.938 and the relative viability ([15]; first compound 0.01 µM) was 0.87. For the same compound, the relative viability ([15]; first compound 0.03162 µM) was 0.887, the relative viability ([15]; first compound 0.3162 µM) was 0.831 and the relative viability ([16]; first compound 0.01 µM) was 0.348. For the same compound, the relative viability ([16]; first compound 0.03162 µM) was 0.286, the relative viability ([16]; first compound 0.3162 µM) was 0.306 and the relative viability ([17]; first compound 0.01 µM) was 1.13. For the same compound, the relative viability ([17]; first compound 0.03162 µM) was 1.1, the relative viability ([17]; first compound 0.3162 µM) was 1.08 and the relative viability ([18]; first compound 0.01 µM) was 1.12. The relative viability ([18]; first compound 0.03162 µM) was 1.05, the relative viability ([18]; first compound 0.3162 µM) was 1.09 and the relative viability ([19]; first compound 0.01 µM) was 0.228. It also gave a relative viability ([19]; first compound 0.03162 µM) of 0.246, a relative viability ([19]; first compound 0.3162 µM) of 0.245 and a relative viability ([20]; first compound 0.01 µM) of 1.15. For the same compound, the relative viability ([20]; first compound 0.03162 µM) was 1.08, the relative viability ([20]; first compound 0.3162 µM) was 1.05 and the relative viability ([21]; first compound 0.01 µM) was 0.429. For the same compound, the relative viability ([21]; first compound 0.03162 µM) was 0.598, the relative viability ([21]; first compound 0.3162 µM) was 0.48 and the relative viability ([22]; first compound 0.01 µM) was 1.01. The relative viability ([22]; first compound 0.03162 µM) was 0.895 and the relative viability ([22]; first compound 0.3162 µM) was 0.892.
